Active and inactive are the calls of the source. No stated cut-off is given here; in the data, actives have a measured IC50 and inactives only a lower limit.
Experiments:
Assay type in all cases: functional
[1] = biological target: T1, Caspase-3 (Homo sapiens, UniProt P42574); experiment: caspase-3 inhibitors as off-family protease, SAR follow-up, selectivity assay for SENP protease inhibitor project, biochemical, luminescence, set 2 (AID 588599)
T1 sequence (P42574 whole entry): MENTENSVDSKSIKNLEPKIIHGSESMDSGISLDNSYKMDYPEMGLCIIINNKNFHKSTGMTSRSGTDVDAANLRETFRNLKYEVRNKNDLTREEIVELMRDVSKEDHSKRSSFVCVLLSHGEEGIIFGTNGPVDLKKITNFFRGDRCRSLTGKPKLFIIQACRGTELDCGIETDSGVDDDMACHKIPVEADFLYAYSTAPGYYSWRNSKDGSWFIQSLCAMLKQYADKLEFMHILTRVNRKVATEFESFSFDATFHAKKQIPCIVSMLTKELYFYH

[2] = biological target: T2, Sentrin-specific protease 7 (Homo sapiens, UniProt Q9BQF6); experiment: SENP7 protease inhibitors, SAR follow-up, biochemical, luminescence, set 2 (AID 588600)
T2 sequence (Q9BQF6 whole entry): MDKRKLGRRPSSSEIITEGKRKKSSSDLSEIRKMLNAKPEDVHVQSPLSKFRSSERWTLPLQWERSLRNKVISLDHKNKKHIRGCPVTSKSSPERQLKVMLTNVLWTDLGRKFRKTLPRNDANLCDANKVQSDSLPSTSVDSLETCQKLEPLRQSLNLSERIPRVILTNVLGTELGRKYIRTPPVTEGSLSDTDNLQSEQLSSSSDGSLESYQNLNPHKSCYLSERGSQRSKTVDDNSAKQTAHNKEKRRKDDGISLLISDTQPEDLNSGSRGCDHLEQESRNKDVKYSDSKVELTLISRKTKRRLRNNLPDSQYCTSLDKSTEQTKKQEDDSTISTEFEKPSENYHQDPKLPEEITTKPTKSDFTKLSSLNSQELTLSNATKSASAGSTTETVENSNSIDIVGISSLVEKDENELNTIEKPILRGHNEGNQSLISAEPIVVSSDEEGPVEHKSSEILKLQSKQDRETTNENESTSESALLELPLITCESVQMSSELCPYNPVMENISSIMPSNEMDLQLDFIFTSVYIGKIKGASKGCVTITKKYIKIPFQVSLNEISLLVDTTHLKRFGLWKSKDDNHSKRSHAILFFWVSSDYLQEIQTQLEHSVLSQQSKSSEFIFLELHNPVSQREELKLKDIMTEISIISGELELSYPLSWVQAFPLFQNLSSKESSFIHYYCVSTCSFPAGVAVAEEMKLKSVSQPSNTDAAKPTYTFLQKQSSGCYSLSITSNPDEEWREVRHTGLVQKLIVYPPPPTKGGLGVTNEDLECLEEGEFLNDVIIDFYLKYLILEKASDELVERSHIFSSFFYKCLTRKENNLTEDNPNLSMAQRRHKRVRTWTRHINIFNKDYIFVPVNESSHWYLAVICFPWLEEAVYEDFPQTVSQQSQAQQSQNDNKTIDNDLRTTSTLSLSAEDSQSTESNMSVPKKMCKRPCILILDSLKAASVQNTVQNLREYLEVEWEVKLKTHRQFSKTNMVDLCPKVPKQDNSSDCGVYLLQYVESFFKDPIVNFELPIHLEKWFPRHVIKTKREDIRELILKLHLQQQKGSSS

[3] = biological target: T3, Sentrin-specific protease 6 (Homo sapiens, UniProt Q9GZR1); experiment: SENP6 protease inhibitors, SAR follow-up, biochemical, luminescence, set 2 (AID 588598)
T3 sequence (Q9GZR1 whole entry): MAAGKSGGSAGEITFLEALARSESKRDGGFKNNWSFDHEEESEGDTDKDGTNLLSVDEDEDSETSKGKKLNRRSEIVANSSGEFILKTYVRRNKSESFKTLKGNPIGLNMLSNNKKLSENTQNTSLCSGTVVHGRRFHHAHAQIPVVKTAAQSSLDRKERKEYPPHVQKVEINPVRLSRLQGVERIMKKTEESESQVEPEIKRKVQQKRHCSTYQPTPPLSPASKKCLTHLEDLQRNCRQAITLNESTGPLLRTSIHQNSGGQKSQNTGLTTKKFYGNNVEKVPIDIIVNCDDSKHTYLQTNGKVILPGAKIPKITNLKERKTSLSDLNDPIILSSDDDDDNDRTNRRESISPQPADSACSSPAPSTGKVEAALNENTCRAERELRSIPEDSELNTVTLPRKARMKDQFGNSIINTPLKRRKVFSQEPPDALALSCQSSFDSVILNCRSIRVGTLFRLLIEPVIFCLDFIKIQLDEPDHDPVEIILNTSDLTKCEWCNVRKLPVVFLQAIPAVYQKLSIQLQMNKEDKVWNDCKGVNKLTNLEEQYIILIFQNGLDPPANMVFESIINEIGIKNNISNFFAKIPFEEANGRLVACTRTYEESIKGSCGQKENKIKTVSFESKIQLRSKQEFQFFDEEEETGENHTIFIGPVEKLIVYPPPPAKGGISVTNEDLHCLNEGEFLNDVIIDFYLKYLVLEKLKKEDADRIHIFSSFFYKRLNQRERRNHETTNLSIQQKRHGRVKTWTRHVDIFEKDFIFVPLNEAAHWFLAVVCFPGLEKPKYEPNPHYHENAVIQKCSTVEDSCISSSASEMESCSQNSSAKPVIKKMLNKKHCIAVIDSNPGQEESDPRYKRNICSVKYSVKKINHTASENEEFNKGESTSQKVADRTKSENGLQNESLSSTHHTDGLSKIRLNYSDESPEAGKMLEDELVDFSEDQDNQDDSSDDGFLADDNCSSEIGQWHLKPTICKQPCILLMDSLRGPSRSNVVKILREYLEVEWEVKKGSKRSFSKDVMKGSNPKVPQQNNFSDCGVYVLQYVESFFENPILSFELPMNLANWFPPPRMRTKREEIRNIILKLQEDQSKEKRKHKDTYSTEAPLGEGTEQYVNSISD

[4] = biological target: T4, Sentrin-specific protease 8 (Homo sapiens, UniProt Q96LD8); experiment: SENP8 protease inhibitors, SAR follow-up, biochemical, luminescence, set 2 (AID 588601)
T4 sequence (Q96LD8 whole entry): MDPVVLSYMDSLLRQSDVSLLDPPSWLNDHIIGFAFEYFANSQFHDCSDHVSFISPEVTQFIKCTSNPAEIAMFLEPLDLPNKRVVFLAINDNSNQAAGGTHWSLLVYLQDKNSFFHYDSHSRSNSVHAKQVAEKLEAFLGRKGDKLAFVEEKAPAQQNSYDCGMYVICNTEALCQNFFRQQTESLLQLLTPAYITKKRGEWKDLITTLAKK

Measured: IC50

CCCN(CCC)S(=O)(=O)c1ccc2[nH]cc(/C=N/NC(=S)Nc3ccc(F)c(Cl)c3)c2c1
inactive: [1] > 99 µM | [2] > 99 µM | [3] > 99 µM | [4] > 99 µM

Source: ChEMBL document CHEMBL1201862, “PubChem BioAssay data set” (2004)
